Assay results from PubChem BioAssay AID330 (DTP/NCI, 2004).
Several values for one entry are separate records, joined by “and”; a condition that tells them apart may be missing. Equal values may be shown once. Toxic doses and inconclusive results are not listed. The calls were made as follows: active = survival T/C of 150% or more; inactive = T/C below 125% in these data.

Test system: P388 leukemia ip, CD2F1 mice, survival T/C
Experiment: NCI In Vivo Anticancer Drug Screen. Data for tumor model P388 Leukemia (intraperitoneal) in CD2F1 (CDF1) mice
Settings: endpoint: median survival time, higher = longer survival
Method in brief: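 Mice carrying the transplanted tumor received test compound or vehicle. Survival was recorded in each group, and the value is the treated-group measurement divided by that of the vehicle-treated control group.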

[1] = dose: 50.0 mg/kg/injection, schedule: Q01DX009 (ip), vehicle: saline
[2] = dose: 100.0 mg/kg/injection, schedule: Q01DX009 (ip), vehicle: saline
[3] = dose: 60.0 mg/kg/injection, schedule: Q01DX005 (ip), vehicle: saline with Tween-80
[4] = dose: 120.0 mg/kg/injection, schedule: Q01DX005 (ip), vehicle: saline with Tween-80
[5] = dose: 240.0 mg/kg/injection, schedule: Q01DX005 (ip), vehicle: saline with Tween-80
[6] = dose: 50.0 mg/kg/injection, schedule: Q01DX005 (ip), vehicle: saline with Tween-80
[7] = dose: 100.0 mg/kg/injection, schedule: Q01DX005 (ip), vehicle: saline with Tween-80
[8] = dose: 200.0 mg/kg/injection, schedule: Q01DX005 (ip), vehicle: saline with Tween-80
[9] = dose: 25.0 mg/kg/injection, schedule: Q01DX009 (ip), vehicle: saline with Tween-80
[10] = dose: 50.0 mg/kg/injection, schedule: Q01DX009 (ip), vehicle: saline with Tween-80
[11] = dose: 50.0 mg/kg/injection, schedule: Q01DX009 (ip), vehicle: suspension in saline
[12] = dose: 100.0 mg/kg/injection, schedule: Q01DX009 (ip), vehicle: saline with Tween-80
[13] = dose: 100.0 mg/kg/injection, schedule: Q01DX009 (ip), vehicle: suspension in saline
[14] = dose: 200.0 mg/kg/injection, schedule: Q01DX009 (ip), vehicle: saline with Tween-80
[15] = dose: 50.0 mg/kg/injection, schedule: Q01DX005 (ip), vehicle: saline
[16] = dose: 50.0 mg/kg/injection, schedule: Q01DX005 (ip), vehicle: Klucel (hydroxypropylcellulose) (HPC)
[17] = dose: 100.0 mg/kg/injection, schedule: Q01DX005 (ip), vehicle: Klucel (hydroxypropylcellulose) (HPC)
[18] = dose: 200.0 mg/kg/injection, schedule: Q01DX005 (ip), vehicle: Klucel (hydroxypropylcellulose) (HPC)

Measured: T/C

CC(=O)OC(C)C[N+](C)(C)C (configuration not stated)
inactive: dose: 100.0 mg/kg/injection, schedule: Q04DX002 (ip), vehicle: saline 102 % of control | dose: 200.0 mg/kg/injection, schedule: Q04DX002 (ip), vehicle: saline 102 % of control | dose: 400.0 mg/kg/injection, schedule: Q04DX002 (ip), vehicle: saline 94 % of control

O=[N+]([O-])c1cnc(/C=[N+](\[O-])CCO)n1CCO
inactive: [1] 99 % of control | [2] 90 % of control | dose: 200.0 mg/kg/injection, schedule: Q01DX009 (ip), vehicle: saline 106 % of control

CN(C)CCCN1c2ccccc2Sc2ccc(F)cc21
inactive: [1] 122 % of control

C/C(=C/C(=O)O)c1ccc([N+](=O)[O-])cc1
inactive: [3] 94 % of control | [4] 100 % of control | [5] 101 % of control

O=C(NCc1ccccc1)Nc1cccc2c(NC(=O)NCc3ccccc3)cccc12
inactive: dose: 30.0 mg/kg/injection, schedule: Q01DX005 (ip), vehicle: saline with Tween-80 91 % of control | [3] 86 % of control and 89 % of control | [4] 86 % of control

COc1cc2c(cc1OC)C(C#N)C2 (configuration not stated)
inactive: dose: 0.78 mg/kg/injection, schedule: Q01DX009 (ip), vehicle: saline with Tween-80 100 % of control | dose: 1.56 mg/kg/injection, schedule: Q01DX009 (ip), vehicle: saline with Tween-80 97 % of control | dose: 3.12 mg/kg/injection, schedule: Q01DX009 (ip), vehicle: saline with Tween-80 102 % of control | dose: 6.25 mg/kg/injection, schedule: Q01DX009 (ip), vehicle: saline with Tween-80 102 % of control

O=C(OCC(OC(=O)c1ccccc1)C(OC(=O)c1ccccc1)C(OC(=O)c1ccccc1)c1nn[nH]n1)c1ccccc1 (configuration not stated)
inactive: [6] 100 % of control | [7] 100 % of control | [8] 95 % of control

O=C1C=CC(=O)C2(CO)OC12 (configuration not stated)
inactive: dose: 1.88 mg/kg/injection, schedule: Q04DX002 (ip), vehicle: saline with Tween-80 95 % of control | dose: 3.75 mg/kg/injection, schedule: Q04DX002 (ip), vehicle: saline with Tween-80 102 % of control

CC(=O)[O][Hg][O]C(C)=O
inactive: dose: 1.25 mg/kg/injection, schedule: Q01DX009 (ip), vehicle: saline with Tween-80 95 % of control

CC/C=C\C/C=C\C/C=C\CCCCCCCC(=O)O
inactive: dose: 40.0 mg/kg/injection, schedule: Q01DX009 (ip), vehicle: Klucel (hydroxypropylcellulose) (HPC) 92 % of control | dose: 80.0 mg/kg/injection, schedule: Q01DX009 (ip), vehicle: Klucel (hydroxypropylcellulose) (HPC) 100 % of control | dose: 160.0 mg/kg/injection, schedule: Q01DX009 (ip), vehicle: Klucel (hydroxypropylcellulose) (HPC) 98 % of control | dose: 320.0 mg/kg/injection, schedule: Q01DX009 (ip), vehicle: Klucel (hydroxypropylcellulose) (HPC) 95 % of control

COc1ccc(CN2CC(C)N(N=Cc3c4c(O)c5c(O)c(C)c6c(c5c3O)C(=O)C(C)(O/C=C/C(OC)C(C)C(OC(C)=O)C(C)C(O)C(C)C(O)C(C)/C=C/C=C(\C)C(=O)N4)O6)C(C)C2)cc1 (configuration not stated)
inactive: [9] 110 % of control | [10] 103 % of control and 116 % of control | [11] 112 % of control | [12] 113 % of control and 119 % of control | [13] 108 % of control | [14] 119 % of control | dose: 200.0 mg/kg/injection, schedule: Q01DX009 (ip), vehicle: suspension in saline 91 % of control

CC(=O)Nc1ccc(C(F)(F)F)cc1
inactive: dose: 25.0 mg/kg/injection, schedule: Q01DX009 (ip), vehicle: suspension in saline 94 % of control | [11] 94 % of control | [13] 86 % of control

CN1c2ccccc2S(=O)(=O)n2c(Cc3ccccc3)nnc21
inactive: dose: 100.0 mg/kg/injection, schedule: Q04DX002 (ip), vehicle: saline with Tween-80 92 % of control | dose: 200.0 mg/kg/injection, schedule: Q04DX002 (ip), vehicle: saline with Tween-80 90 % of control | dose: 400.0 mg/kg/injection, schedule: Q04DX002 (ip), vehicle: saline with Tween-80 90 % of control

CN1NC(C2NN(C)C(=O)N(C)N2)NN(C)C1=O
inactive: [15] 102 % of control | dose: 100.0 mg/kg/injection, schedule: Q01DX005 (ip), vehicle: saline 102 % of control | dose: 200.0 mg/kg/injection, schedule: Q01DX005 (ip), vehicle: saline 107 % of control

CN(C)CSCN(C)C
inactive: [9] 103 % of control and 93 % of control | [10] 100 % of control and 113 % of control | [12] 102 % of control and 123 % of control

O=C1Nc2cnc(Cl)nc2Nc2ccccc21
inactive: [16] 99 % of control | [17] 91 % of control | [18] 101 % of control

CCC[CH2][Sn]([F])([F])[CH2]CCC
inactive: dose: 6.25 mg/kg/injection, schedule: Q04DX003 (ip), vehicle: saline 107 % of control | dose: 12.5 mg/kg/injection, schedule: Q04DX003 (ip), vehicle: saline 114 % of control | dose: 25.0 mg/kg/injection, schedule: Q04DX003 (ip), vehicle: saline 118 % of control

COC(=N)CCSSCCC(=N)OC
inactive: dose: 25.0 mg/kg/injection, schedule: Q01DX009 (ip), vehicle: saline 102 % of control | [1] 105 % of control | [2] 106 % of control | [13] 101 % of control

O=C(O)c1ccc(S(=O)(=O)F)c(Cl)c1
inactive: [3] 120 % of control | [4] 119 % of control | [5] 121 % of control

C=CCC1(OC(C)=O)CC2C(=O)C(=O)C(C1)N2OC(=O)c1ccccc1 (configuration not stated)
inactive: [16] 100 % of control | [17] 87 % of control | [18] 94 % of control

Cc1ccccc1N=Nc1ccc(N=Nc2ccc(N)nc2N)c(C)c1
inactive: [6] 104 % of control | [7] 110 % of control | [8] 99 % of control

CCCCCCC(=O)CC1(C(=O)OC)NC(=S)NC(=O)C1C#N (configuration not stated)
inactive: dose: 60.0 mg/kg/injection, schedule: Q01DX005 (ip), vehicle: Klucel (hydroxypropylcellulose) (HPC) 100 % of control | dose: 120.0 mg/kg/injection, schedule: Q01DX005 (ip), vehicle: Klucel (hydroxypropylcellulose) (HPC) 103 % of control | dose: 240.0 mg/kg/injection, schedule: Q01DX005 (ip), vehicle: Klucel (hydroxypropylcellulose) (HPC) 97 % of control

Cc1nnc2cc1CCCCCCCCC2
inactive: [16] 108 % of control | [17] 107 % of control | [18] 103 % of control

O=C(c1ccccc1)C(CN1CCCC1)CN1CCCC1
inactive: dose: 12.5 mg/kg/injection, schedule: Q01DX005 (ip), vehicle: saline 100 % of control | dose: 25.0 mg/kg/injection, schedule: Q01DX005 (ip), vehicle: saline 97 % of control | [15] 100 % of control and 102 % of control

O=C1CCCN1C(=O)c1ccccc1
inactive: dose: 18.8 mg/kg/injection, schedule: Q01DX001 (ip), vehicle: saline sonified 105 % of control | dose: 37.5 mg/kg/injection, schedule: Q01DX001 (ip), vehicle: saline sonified 120 % of control | dose: 75.0 mg/kg/injection, schedule: Q01DX001 (ip), vehicle: saline sonified 105 % of control

CCOC(=O)N1CC2C3CN(C(=O)OCC)C4CC3(C(=O)O)C1CC24C(=O)O
inactive: [10] 109 % of control | [12] 100 % of control | [14] 102 % of control

C=C(C)C1CCC2=CC(CC3(C)OC3C3=CC(C(=O)OC)=C(C1)O3)OC2=O (configuration not stated)
inactive: dose: 12.5 mg/kg/injection, schedule: Q01DX009 (ip), vehicle: Klucel (hydroxypropylcellulose) (HPC) 99 % of control | dose: 25.0 mg/kg/injection, schedule: Q01DX009 (ip), vehicle: Klucel (hydroxypropylcellulose) (HPC) 104 % of control | dose: 50.0 mg/kg/injection, schedule: Q01DX009 (ip), vehicle: Klucel (hydroxypropylcellulose) (HPC) 100 % of control

CN(C)CC(CN(C)C)C(=O)C(C)(C)C
inactive: dose: 3.8 mg/kg/injection, schedule: Q01DX005 (ip), vehicle: saline 99 % of control | dose: 7.5 mg/kg/injection, schedule: Q01DX005 (ip), vehicle: saline 96 % of control | dose: 15.0 mg/kg/injection, schedule: Q01DX005 (ip), vehicle: saline 93 % of control | dose: 30.0 mg/kg/injection, schedule: Q01DX005 (ip), vehicle: saline 105 % of control | dose: 60.0 mg/kg/injection, schedule: Q01DX005 (ip), vehicle: saline 100 % of control and 104 % of control | dose: 120.0 mg/kg/injection, schedule: Q01DX005 (ip), vehicle: saline 104 % of control and 110 % of control

CCOC(=O)N(C)C(C)Cc1ccccc1 (configuration not stated)
inactive: [10] 100 % of control | [12] 104 % of control | [14] 108 % of control
